Molecular target: T1, human TGR5 (Homo sapiens, UniProt Q8TDU6)
T1 construct: expressed in transfected cells; host or cells: HEK293
T1 sequence (Q8TDU6 1-330): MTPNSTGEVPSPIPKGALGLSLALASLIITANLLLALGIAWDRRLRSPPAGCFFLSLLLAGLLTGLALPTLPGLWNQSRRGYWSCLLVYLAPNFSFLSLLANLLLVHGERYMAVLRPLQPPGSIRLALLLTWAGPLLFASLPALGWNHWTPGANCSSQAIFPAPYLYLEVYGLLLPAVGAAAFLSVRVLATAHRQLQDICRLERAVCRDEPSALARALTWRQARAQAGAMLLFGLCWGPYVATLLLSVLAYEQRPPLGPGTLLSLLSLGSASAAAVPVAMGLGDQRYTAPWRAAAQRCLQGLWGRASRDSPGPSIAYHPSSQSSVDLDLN
Assay: Cell-based TGR5 assay (cAMP generation, HTRF)
Details: HEK293 cells stably transfected with human TGR5, cAMP by HTRF, 30 minutes at 37° C.; for EC50: read-out: pEC50 Human TGR5 (converted)
Procedure, shortened: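 First, compounds in 3-fold serial dilution were placed in HBSS with 10 mM HEPES pH 7.4 and 0.5 mM IBMX. Next, human TGR5-expressing HEK293 cells were added and incubated 30 min at 37° C. Finally, cAMP was detected by HTRF and pEC50 derived by logistic fitting.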

Row | SMILES | EC50 [nM] | pEC50 Human TGR5
1 | CC(CCCC(=O)N(CCS(=O)(=O)N(C)C)C[C@H](O)[C@@H](O)[C@H](O)[C@H](O)CO)c1ccc(Cl)c(CNC2(c3cnccc3-c3ccccc3OC3CC3)CC2)c1 (stereo partly drawn) [Compound I-348, 5-{4-chloro-3-[({1-[4-(2-cyclopropoxyphenyl)pyridin-3-yl]cyclopropyl}amino)methyl]phenyl}-N-[2-(dimethylsulfamoyl)ethyl]-N-[(2S,3R,4R,5R)-2,3,4,5,6-pentahydroxyhexyl]hexanamide] | < 100 | 
2 | CC(CCCC(=O)N(CCC(=O)N(C)C)C[C@H](O)[C@@H](O)[C@H](O)[C@H](O)CO)c1ccc(Cl)c(CNC2(c3cnccc3-c3ccccc3OC3CC3)CC2)c1 (stereo partly drawn) [Compound I-345, 5-{4-chloro-3-[({1-[4-(2-cyclopropoxyphenyl)pyridin-3-yl]cyclopropyl}amino)methyl]phenyl}-N-[2-(dimethylcarbamoyl)ethyl]-N-[(2S,3R,4R,5R)-2,3,4,5,6-pentahydroxyhexyl]hexanamide] | 126 to 1000 | 
3 | O=S(=O)(NC[C@H](O)[C@@H](O)[C@H](O)[C@H](O)CO)c1ccc(Cl)c(COC2(c3cnccc3-c3ccccc3OC3CC3)CC2)c1 [Compound I-397, (2S,3R,4R,5R)-S-[4-chloro-3-({1-[4-(2-cyclopropoxyphenyl)pyridin-3-yl]cyclopropoxy}methyl)phenyl]-2,3,4,5,6-pentahydroxyhexane-1-sulfonamido] | 126 to 1000 | 
4 | C[C@H](CCCCNC(=O)N[C@@H](CO)[C@@H](O)[C@H](O)[C@H](O)CO)c1ccc(Cl)c(COC2(c3cnccc3-c3ccccc3OC3CC3)CC2)c1 (single isomer, unassigned) [Compound I-264] | < 100 | 
5 | O=C(CCCCc1cc(Cl)c(COC2(c3cnccc3-c3ccccc3OC3CC3)CC2)cc1Cl)N1CCN(C[C@H](O)[C@@H](O)[C@@H](O)[C@H](O)CO)CC1 [Compound I-92, 5-(2,5-dichloro-4-((1-(4-(2-cyclopropoxyphenyl)pyridin-3-yl)cyclopropoxy)methyl)phenyl)-1-(4-((2S,3R,4S,5R)-2,3,4,5,6-pentahydroxyhexyl)piperazin-1-yl)pentan-1-one] | < 100 | 
6 | CC(CCCCN(C)C(=O)[C@@H](O)[C@@H](O)[C@H](O)[C@@H](O)CO)c1ccc(Cl)c(CNC2(c3cnccc3-c3ccccc3OC3CC3)CC2)c1 (stereo partly drawn) [Compound I-281, (2S,3S,4R,5S)-N-(5-{4-chloro-3-[({1-[4-(2-cyclopropoxyphenyl)pyridin-3-yl]cyclopropyl}amino)methyl]phenyl}hexyl)-2,3,4,5,6-pentahydroxy-N-methylhexanamide] | < 100 | 
7 | O=C(NCCCCCNS(=O)(=O)c1ccc(Cl)c(COC2(c3cnccc3-c3ccccc3OC3CC3)CC2)c1)N[C@@H](CO)[C@@H](O)[C@H](O)[C@H](O)CO (stereo in doubt) [Compound I-409, 1-{5-[4-chloro-3-({1-[4-(2-cyclopropoxyphenyl)pyridin-3-yl]cyclopropoxy}methyl)benzenesulfonamido]pentyl}-3-[(2S,3R,4S,5R)-1,3,4,5,6-pentahydroxyhexan-2-yl]urea] | < 100 | 
8 | Clc1ccc(C2CC2)cc1CNC1(c2cnccc2-c2ccccc2OC2CC2)CC1 [Compound I-31, N-[(2-chloro-5-cyclopropylphenyl)methyl]-1-[4-(2-cyclopropoxyphenyl)pyridin-3-yl]cyclopropan-1-amine] | < 100 | 
9 | CS(=O)(=O)CC(=O)N(CCCCc1cc(Cl)c(COC2(c3cnccc3-c3ccccc3OC3CC3)CC2)cc1Cl)C[C@H](O)[C@@H](O)[C@H](O)[C@H](O)CO [Compound I-202, N-{4-[2,5-dichloro-4-({1-[4-(2-cyclopropoxyphenyl)pyridin-3-yl]cyclopropoxy}methyl)phenyl]butyl}-2-methanesulfonyl-N-[(2S,3R,4R,5R)-2,3,4,5,6-pentahydroxyhexyl]acetamide] | < 100 | 
10 | Cc1ccc(C(C)CCCN(C(=O)[C@@H](O)[C@@H](O)[C@H](O)[C@@H](O)CO)C2CCOCC2)cc1CNC1(c2cnccc2-c2ccccc2OC2CC2)CC1 (stereo partly drawn) [Compound I-304, (2S,3S,4R,5S)-N-(4-{3-[({1-[4-(2-cyclopropoxyphenyl)pyridin-3-yl]cyclopropyl}amino)methyl]-4-methylphenyl}pentyl)-2,3,4,5,6-pentahydroxy-N-(oxan-4-yl)hexanamide] | < 100 | 
11 | Clc1ccc(Cl)c(CNC2(c3cnccc3-c3ccccc3OC3CCOC3)CC2)c1 (stereo not shown) [Compound I-21, N-[(2,5-dichlorophenyl)methyl]-1-{4-[2-(oxolan-3-yloxy)phenyl]pyridin-3-yl}cyclopropan-1-amine] | 126 to 1000 | 
12 | Cc1ccc(CCCCC(=O)NC[C@H](O)[C@@H](O)[C@H](O)[C@H](O)CO)cc1CNC1(c2cnccc2-c2ccccc2OC2CC2)CC1 (stereo in doubt) [Compound I-237, 5-{3-[({1-[4-(2-cyclopropoxyphenyl)pyridin-3-yl]cyclopropyl}amino)methyl]-4-methylphenyl}-N-[(2S,3R,4R,5R)-2,3,4,5,6-pentahydroxyhexyl]pentanamide] | 126 to 1000 | 
13 | Clc1cccc(CNC2(c3cnccc3-c3ccccc3OC3CC3)CC2)c1Cl [Compound I-26, 1-[4-(2-cyclopropoxyphenyl)pyridin-3-yl]-N-[(2,3-dichlorophenyl)methyl]cyclopropan-1-amine] | 126 to 1000 | 
14 | C[C@H](CCCC(=O)O)c1ccc(Cl)c(CNC2(c3cnccc3-c3ccccc3OC3CC3)CC2)c1 (single isomer, unassigned) [Compound I-247] | < 100 | 
15 | Clc1cc(Cl)cc(CNC2(c3cnccc3-c3ccccc3OC3CC3)CC2)c1 [Compound I-44, 1-[4-(2-cyclopropoxyphenyl)pyridin-3-yl]-N-[(3,5-dichlorophenyl)methyl]cyclopropan-1-amine] | 1260 to 10000 | 

Results, then the compound that gave them:

Row | EC50 [nM] | pEC50 Human TGR5 | SMILES
16 | < 100 |  | CC(=O)NCCCCN(CCCCSc1ccc(Cl)c(COC2(c3cnccc3-c3ccccc3OC3CC3)CC2)c1)C(=O)[C@@H](O)[C@@H](O)[C@H](O)[C@@H](O)CO [Compound I-568, (2S,3S,4R,5S)-N-(4-{[4-chloro-3-({1-[4-(2-cyclopropoxyphenyl)pyridin-3-yl]cyclopropoxy}methyl)phenyl]sulfanyl}butyl)-N-(4-acetamidobutyl)-2,3,4,5,6-pentahydroxyhexanamide]
17 | < 100 |  | O=C(NCCCCCS(=O)(=O)c1ccc(Cl)c(COC2(c3cnccc3-c3ccccc3OC3CC3)CC2)c1)[C@@H](O)[C@@H](O)[C@H](O)[C@@H](O)CO [Compound I-608, (2S,3S,4R,5S)-N-{5-[4-chloro-3-({1-[4-(2-cyclopropoxyphenyl)pyridin-3-yl]cyclopropoxy}methyl)benzenesulfonyl]pentyl}-2,3,4,5,6-pentahydroxyhexanamide]
18 | 126 to 1000 |  | O=C(NC[C@H](O)[C@@H](O)[C@H](O)[C@H](O)CO)NC1CCN(S(=O)(=O)c2ccc(Cl)c(COC3(c4cnccc4-c4ccccc4OC4CC4)CC3)c2)C1 (stereo partly drawn) [Compound I-429, 1-{l-[4-chloro-3-({1-[4-(2-cyclopropoxyphenyl)pyridin-3-yl]cyclopropoxy}methyl)benzenesulfonyl]pyrrolidin-3-yl}-3-[(2S,3R,4R,5R)-2,3,4,5,6-pentahydroxyhexyl]urea]
19 | < 100 |  | O=C(/C=C/C1CCN(S(=O)(=O)c2ccc(Cl)c(COC3(c4cnccc4-c4ccccc4OC4CC4)CC3)c2)C1)NC[C@H](O)[C@@H](O)[C@H](O)[C@H](O)CO (stereo partly drawn) [Compound I-450, (2E)-3-{1-[4-chloro-3-({1-[4-(2-cyclopropoxyphenyl)pyridin-3-yl]cyclopropoxy}methyl)benzenesulfonyl]pyrrolidin-3-yl}-N-[(2S,3R,4R,5R)-2,3,4,5,6-pentahydroxyhexyl]prop-2-enamide]
20 | < 100 |  | Oc1cc(Cl)c(CNC2(c3cnccc3-c3ccccc3OC3CC3)CC2)cc1Cl [Compound I-700, 2,5-dichloro-4-[([1-[4-(2-cyclopropoxyphenyl)pyridin-3-yl]cyclopropyl]amino)methyl]phenol]
21 | < 100 |  | O=C(NCCCCNC(=O)NC[C@H](O)[C@@H](O)[C@H](O)[C@H](O)CO)NCCCCSc1ccc(Cl)c(COC2(c3cnccc3-c3ccccc3OC3CC3)CC2)c1 [Compound I-629, 1-(4-{[(4-{[4-chloro-3-({1-[4-(2-cyclopropoxyphenyl)pyridin-3-yl]cyclopropoxy}methyl)phenyl]sulfanyl}butyl)carbamoyl]amino}butyl)-3-[(2S,3R,4R,5R)-2,3,4,5,6-pentahydroxyhexyl]urea]
22 |  | B (B is a pEC50 of 6 to 6.9) | CN(CCCCNC(=O)NCCOCCOCCNC(=O)NCCOCCOCCNC(=O)NCCCCN(C)S(=O)(=O)c1ccc(Cl)c(COC2(c3cnccc3-c3ccccc3OC3CC3)CC2)c1)S(=O)(=O)c1ccc(Cl)c(COC2(c3cnccc3-c3ccccc3OC3CC3)CC2)c1 [Compound I-737, 3-(4-[N-methyl[4-chloro-3-([1-[4-(2-cyclopropoxyphenyl)pyridin-3-yl]cyclopropoxy]methyl)benzene]sulfonamido]butyl)-1-[2-(2-[2-[([2-[2-(2-[[(4-[N-methyl[4-chloro-3-([1-[4-(2-cyclopropoxyphenyl)pyridin-3-yl]cyclopropoxy]methyl)benzene]sulfonamido]butyl)carbamoyl]amino]ethoxy)ethoxy]ethyl]carbamoyl)amino]ethoxy]ethoxy)ethyl]urea]

— patent publication US12084472B2 (Ardelyx, Inc., priority 2015, dated 2024)
